# From ChEMBL document CHEMBL4190175 (Medchemcomm, 2016)
# Columns and labels:
# [1] = Stability in rat plasma; format: ADME, cell-free; details: read-out: Stability
# [2] = target: Transient receptor potential cation channel subfamily A member 1 (Rattus norvegicus, UniProt Q6RI86); assay: Antagonist activity at rat TRPA1 by electrophysiology assay
# [3] = target: Transient receptor potential cation channel subfamily A member 1 (Homo sapiens, UniProt O75762); assay: Antagonist activity at human TRPA1 by electrophysiology assay
# [4] = target: Cytochrome P450 3A4 (Homo sapiens, UniProt P08684); assay: Inhibition of CYP3A4 (unknown origin); format: ADME
# [5] = Stability in dog plasma; format: ADME, cell-free, Canis lupus familiaris; details: read-out: Stability
# [6] = target: Sodium channel protein type 5 subunit alpha (Homo sapiens, UniProt Q14524); assay: Inhibition of Nav1.5 (unknown origin)
# [7] = target: Voltage-gated inwardly rectifying potassium channel KCNH2 (Homo sapiens, UniProt Q12809); assay: Inhibition of human ERG
# [8] = target: T1, Cytochrome P450 2C8 (Homo sapiens, UniProt P10632); assay: Inhibition of CYP2C8 (unknown origin); format: ADME
# T1 sequence (P10632 whole entry): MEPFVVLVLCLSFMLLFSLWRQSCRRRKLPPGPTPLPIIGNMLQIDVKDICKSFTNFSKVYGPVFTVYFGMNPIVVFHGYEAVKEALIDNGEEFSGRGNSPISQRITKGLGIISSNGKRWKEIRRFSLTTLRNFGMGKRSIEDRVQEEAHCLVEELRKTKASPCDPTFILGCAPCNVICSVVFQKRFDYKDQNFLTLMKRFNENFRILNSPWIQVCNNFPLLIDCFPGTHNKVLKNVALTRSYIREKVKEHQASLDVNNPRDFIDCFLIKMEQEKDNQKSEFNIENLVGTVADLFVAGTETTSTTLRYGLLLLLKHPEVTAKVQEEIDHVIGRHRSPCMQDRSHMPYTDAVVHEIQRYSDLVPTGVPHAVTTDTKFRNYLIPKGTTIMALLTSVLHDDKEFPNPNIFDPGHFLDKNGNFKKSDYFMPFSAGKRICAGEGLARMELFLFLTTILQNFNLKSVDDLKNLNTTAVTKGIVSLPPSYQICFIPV
# [9] = Inhibition of GABA-A (unknown origin); parameters: species or system Homo sapiens
# [10] = Drug uptake in Sprague-Dawley rat skin epidermal layer at 0.68 mg applied topically measured after 24 hrs; format: ADME, tissue-based, Skin epidermis; details: topical or ocular, read-out: Drug uptake
# [11] = target: Cytochrome P450 2C19 (Homo sapiens, UniProt P33261); assay: Inhibition of CYP2C19 (unknown origin); format: ADME
# [12] = target: Transient receptor potential cation channel subfamily A member 1 (Mus musculus, UniProt Q8BLA8); assay: Antagonist activity at mouse TRPA1 by electrophysiology assay
# [13] = target: Cytochrome P450 2C9 (Homo sapiens, UniProt P11712); assay: Inhibition of CYP2C9 (unknown origin); format: ADME
# [14] = target: Transient receptor potential cation channel subfamily M member 8 (Homo sapiens, UniProt Q7Z2W7); assay: Inhibition of human TRPM8
# Sequence of Transient receptor potential cation channel subfamily M member 8 (Q7Z2W7 whole entry): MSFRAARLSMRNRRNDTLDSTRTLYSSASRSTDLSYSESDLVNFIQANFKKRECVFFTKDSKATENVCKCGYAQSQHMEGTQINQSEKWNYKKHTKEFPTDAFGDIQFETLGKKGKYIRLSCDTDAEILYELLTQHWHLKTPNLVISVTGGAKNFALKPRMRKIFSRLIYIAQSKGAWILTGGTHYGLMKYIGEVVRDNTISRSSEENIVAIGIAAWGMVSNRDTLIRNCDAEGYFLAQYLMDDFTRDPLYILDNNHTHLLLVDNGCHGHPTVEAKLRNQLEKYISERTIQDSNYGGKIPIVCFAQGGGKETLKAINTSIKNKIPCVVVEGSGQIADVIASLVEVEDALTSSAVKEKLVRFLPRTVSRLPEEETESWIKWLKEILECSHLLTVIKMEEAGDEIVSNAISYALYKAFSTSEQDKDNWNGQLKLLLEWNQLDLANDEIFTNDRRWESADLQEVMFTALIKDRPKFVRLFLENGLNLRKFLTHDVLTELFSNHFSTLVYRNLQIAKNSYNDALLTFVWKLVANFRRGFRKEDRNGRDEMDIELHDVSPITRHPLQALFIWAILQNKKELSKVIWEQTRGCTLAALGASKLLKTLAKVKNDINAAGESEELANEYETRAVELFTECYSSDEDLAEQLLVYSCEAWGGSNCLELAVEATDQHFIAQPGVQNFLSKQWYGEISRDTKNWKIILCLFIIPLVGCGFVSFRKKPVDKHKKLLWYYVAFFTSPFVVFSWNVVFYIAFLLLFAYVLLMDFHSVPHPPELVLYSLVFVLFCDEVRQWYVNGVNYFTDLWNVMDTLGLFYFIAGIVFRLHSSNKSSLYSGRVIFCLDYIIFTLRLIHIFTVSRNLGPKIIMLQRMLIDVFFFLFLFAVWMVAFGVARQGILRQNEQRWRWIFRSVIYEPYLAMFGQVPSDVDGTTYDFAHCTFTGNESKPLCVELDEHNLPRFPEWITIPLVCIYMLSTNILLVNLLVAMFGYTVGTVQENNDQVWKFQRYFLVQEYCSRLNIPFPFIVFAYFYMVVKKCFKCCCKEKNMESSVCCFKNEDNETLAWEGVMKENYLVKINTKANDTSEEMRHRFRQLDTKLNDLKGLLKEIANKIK
# Sequence of Voltage-gated inwardly rectifying potassium channel KCNH2 (Q12809 whole entry): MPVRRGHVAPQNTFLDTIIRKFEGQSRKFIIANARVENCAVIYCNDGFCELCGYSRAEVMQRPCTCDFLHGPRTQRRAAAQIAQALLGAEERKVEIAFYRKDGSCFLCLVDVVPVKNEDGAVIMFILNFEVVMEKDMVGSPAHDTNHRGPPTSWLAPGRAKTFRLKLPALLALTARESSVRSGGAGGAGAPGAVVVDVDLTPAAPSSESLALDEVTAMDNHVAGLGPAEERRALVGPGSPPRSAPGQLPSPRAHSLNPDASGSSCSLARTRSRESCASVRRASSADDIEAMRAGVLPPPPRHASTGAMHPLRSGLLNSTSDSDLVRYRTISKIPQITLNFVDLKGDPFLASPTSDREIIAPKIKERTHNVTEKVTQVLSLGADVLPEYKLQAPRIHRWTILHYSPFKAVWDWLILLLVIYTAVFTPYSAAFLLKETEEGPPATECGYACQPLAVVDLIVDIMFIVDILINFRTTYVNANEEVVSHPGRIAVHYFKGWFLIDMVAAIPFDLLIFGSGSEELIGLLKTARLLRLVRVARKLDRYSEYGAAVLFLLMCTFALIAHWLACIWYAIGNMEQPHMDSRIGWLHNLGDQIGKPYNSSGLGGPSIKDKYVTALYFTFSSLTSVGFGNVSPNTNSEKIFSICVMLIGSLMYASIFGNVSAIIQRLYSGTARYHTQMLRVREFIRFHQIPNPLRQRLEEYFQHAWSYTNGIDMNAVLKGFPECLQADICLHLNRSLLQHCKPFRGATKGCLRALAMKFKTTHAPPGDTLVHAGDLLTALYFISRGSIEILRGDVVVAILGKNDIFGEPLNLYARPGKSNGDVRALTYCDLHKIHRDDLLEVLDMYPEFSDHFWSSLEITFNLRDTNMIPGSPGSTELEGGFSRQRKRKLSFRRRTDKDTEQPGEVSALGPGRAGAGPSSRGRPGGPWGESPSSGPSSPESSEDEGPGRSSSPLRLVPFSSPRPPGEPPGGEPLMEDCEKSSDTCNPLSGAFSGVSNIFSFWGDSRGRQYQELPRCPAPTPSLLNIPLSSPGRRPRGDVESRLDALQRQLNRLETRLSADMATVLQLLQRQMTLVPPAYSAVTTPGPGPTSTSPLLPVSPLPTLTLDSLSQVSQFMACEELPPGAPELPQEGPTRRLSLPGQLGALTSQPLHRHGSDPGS
# Sequence of Transient receptor potential cation channel subfamily A member 1 (Homo sapiens, UniProt O75762) (O75762 whole entry): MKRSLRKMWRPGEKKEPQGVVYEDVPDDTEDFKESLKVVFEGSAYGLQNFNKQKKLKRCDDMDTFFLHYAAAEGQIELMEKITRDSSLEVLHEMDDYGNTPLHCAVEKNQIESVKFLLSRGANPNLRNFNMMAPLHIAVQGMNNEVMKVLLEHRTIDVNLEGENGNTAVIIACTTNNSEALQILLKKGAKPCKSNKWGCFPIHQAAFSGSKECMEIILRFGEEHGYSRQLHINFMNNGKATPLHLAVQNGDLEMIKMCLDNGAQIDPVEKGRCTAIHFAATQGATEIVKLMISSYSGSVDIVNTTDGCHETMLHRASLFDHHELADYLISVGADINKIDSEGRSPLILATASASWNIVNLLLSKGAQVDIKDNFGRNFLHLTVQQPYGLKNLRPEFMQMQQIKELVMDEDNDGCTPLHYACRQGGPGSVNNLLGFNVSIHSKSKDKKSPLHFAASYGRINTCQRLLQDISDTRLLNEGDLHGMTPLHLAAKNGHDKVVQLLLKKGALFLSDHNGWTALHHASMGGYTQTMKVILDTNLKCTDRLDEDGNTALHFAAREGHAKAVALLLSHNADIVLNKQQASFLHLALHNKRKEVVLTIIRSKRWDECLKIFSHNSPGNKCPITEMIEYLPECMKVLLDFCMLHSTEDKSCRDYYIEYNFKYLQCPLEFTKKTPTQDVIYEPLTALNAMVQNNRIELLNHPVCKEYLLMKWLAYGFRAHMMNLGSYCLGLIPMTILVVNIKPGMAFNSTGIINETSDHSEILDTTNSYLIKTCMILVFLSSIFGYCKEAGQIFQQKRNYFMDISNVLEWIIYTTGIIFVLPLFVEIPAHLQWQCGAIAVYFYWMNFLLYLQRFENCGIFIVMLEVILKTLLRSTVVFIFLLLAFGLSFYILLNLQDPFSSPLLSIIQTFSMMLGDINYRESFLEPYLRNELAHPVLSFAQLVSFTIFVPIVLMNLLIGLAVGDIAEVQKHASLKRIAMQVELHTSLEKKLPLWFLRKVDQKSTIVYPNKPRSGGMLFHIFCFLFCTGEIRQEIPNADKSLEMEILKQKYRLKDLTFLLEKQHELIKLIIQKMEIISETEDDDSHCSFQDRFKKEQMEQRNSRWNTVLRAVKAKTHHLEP
# Sequence of Transient receptor potential cation channel subfamily A member 1 (Mus musculus, UniProt Q8BLA8) (Q8BLA8 whole entry): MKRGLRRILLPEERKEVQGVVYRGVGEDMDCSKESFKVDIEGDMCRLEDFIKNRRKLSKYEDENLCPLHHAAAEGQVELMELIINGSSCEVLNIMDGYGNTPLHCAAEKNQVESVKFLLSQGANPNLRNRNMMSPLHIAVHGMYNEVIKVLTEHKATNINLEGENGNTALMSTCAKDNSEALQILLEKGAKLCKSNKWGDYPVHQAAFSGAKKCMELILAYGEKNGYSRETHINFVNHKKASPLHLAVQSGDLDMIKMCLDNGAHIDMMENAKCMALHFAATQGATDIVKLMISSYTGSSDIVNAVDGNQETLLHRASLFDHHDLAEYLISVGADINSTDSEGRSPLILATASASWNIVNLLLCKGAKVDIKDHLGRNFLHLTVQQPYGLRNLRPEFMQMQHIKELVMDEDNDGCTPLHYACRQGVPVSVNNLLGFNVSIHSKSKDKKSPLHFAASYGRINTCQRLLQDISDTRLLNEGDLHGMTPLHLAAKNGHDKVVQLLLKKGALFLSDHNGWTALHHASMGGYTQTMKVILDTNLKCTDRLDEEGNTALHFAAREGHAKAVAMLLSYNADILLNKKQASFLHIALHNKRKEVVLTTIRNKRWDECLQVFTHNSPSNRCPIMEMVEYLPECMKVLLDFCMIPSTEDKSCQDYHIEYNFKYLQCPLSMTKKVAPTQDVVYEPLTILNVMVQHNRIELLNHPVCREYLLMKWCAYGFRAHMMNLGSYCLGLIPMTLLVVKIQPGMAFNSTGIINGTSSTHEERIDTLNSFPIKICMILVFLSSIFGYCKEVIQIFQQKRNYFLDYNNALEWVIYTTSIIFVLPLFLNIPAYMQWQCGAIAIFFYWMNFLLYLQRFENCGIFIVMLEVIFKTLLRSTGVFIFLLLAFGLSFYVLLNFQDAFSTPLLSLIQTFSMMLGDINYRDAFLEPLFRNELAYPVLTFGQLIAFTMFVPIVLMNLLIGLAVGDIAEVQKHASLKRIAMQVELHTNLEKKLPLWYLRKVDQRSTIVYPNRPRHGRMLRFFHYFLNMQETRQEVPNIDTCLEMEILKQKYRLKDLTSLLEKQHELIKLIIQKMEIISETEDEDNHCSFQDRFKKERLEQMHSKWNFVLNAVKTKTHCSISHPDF
# Sequence of Cytochrome P450 3A4 (P08684 whole entry): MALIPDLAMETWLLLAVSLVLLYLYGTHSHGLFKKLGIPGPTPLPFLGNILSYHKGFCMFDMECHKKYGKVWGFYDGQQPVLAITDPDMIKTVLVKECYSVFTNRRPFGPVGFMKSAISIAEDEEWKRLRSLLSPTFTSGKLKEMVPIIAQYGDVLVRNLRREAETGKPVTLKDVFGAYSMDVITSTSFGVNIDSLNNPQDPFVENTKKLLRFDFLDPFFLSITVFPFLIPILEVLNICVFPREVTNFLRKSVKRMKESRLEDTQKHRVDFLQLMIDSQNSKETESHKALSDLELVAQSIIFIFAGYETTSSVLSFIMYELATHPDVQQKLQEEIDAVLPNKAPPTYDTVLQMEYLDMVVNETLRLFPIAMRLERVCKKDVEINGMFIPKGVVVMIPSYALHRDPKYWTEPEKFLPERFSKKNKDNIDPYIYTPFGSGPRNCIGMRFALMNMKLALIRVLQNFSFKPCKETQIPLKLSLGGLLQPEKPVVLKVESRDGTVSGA
structure (smiles),measurement,setting,value
O=C(NC[C@@H](Cc1ccccc1)N1CCC(O)(C(F)(F)F)CC1)C1(c2ccc(Cl)cc2)CCCC1,half-life,[1],> 6 h
same,IC50,[2],0.003 µM
same,IC50,[3],0.0007 µM
same,IC50,[4],2.16 µM
same,half-life,[5],> 6 h
same,INH,[6],> 3000 nM
same,IC50,[7],> 3 µM
same,IC50,[8],11.8 µM
same,IC50,[9],2.3 µM
same,concentration at 24 h,[10],3.13e+06 ng/g
same,IC50,[11],3.15 µM
same,IC50,[12],0.004 µM
same,IC50,[13],11.4 µM
same,IC50,[14],> 3 µM
